Where “and” joins values, the source holds several entries; their conditions need not be identical. Identical values can stand only once. Counter-ions that a name gives are not always drawn.
The compounds below were run against MK-2 (Homo sapiens, UniProt P49137) (assay: Determination of MK-2 IC50 (phosphorylation of HSP-peptide, anion exchange resin capture assay)). Conditions: additional values are replicate IC50 experiments; mixture of stereoisomers implied unless otherwise noted; read-out: MK-2 Avg. IC50.
Sequence of MK-2 (P49137 whole entry, species assumed): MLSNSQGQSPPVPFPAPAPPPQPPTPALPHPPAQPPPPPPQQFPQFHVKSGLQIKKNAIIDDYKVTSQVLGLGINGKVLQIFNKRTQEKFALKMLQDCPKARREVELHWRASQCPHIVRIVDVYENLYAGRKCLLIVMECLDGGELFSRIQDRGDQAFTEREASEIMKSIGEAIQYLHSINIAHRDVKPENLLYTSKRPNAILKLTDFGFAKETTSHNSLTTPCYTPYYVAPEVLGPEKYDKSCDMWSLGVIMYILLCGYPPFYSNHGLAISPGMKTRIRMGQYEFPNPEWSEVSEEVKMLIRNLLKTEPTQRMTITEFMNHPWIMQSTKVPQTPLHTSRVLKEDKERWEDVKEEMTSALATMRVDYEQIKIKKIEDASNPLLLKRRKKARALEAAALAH
Format: biochemical
In the case of `COC(=O)C1c2[nH]c3ccc(O)cc3c2CCN1C` (stereo not drawn) [Example 174, methyl 6-hydroxy-2-methyl-2,3,4,9-tetrahydro-1H-beta-carboline-1-carboxylate], the IC50 is reported as > 200 µM. `COc1ccc2[nH]c3c(c2c1)CCNS3(=O)=O` [Example 153, 6-methoxy-2,3,4,9-tetrahydro[1,2]thiazino[6,5-b]indole 1,1-dioxide] gave an IC50 of 155 µM. `O/N=C1\CCCc2c1[nH]c1ccccc21` [Example 109, 2,3,4,9-tetrahydro-1H-carbazol-1-one oxime] showed an IC50 of 49.9 µM. For `COC(=O)C1c2[nH]c3ccc(OC)cc3c2CCN1C(=O)OC(C)(C)C` (stereo not drawn) [Example 234, 2-tert-butyl 1-methyl 6-methoxy-1,3,4,9-tetrahydro-2H-beta-carboline-1,2-dicarboxylate], the IC50 was > 200 µM. With `O=C1NCCc2c1[nH]c1cccc(C(=O)N3CCNCC3)c21` [Example 268, 5-(piperazin-1-ylcarbonyl)-2,3,4,9-tetrahydro-1H-beta-carbolin-1-one hydrochloride] the IC50 was > 200 µM. `O=C(O)C1c2c(c3ccccc3n2Cc2ccccc2)CCN1Cc1cccc(C(F)(F)F)c1` (stereo not drawn) [Example 112, 1H-Pyrido[3,4-b]indole-1-carboxylic acid, 2,3,4,9-tetrahydro-9-(phenylmethyl)-2-[[3-(trifluoromethyl)phenyl]methyl]- or 9-benzyl-2-[3-(trifluoromethyl)benzyl]-2,3,4,9-tetrahydro-1H-beta-carboline-1-carboxylic acid] gave an IC50 of 53.7 µM. In the case of `COc1ccc2c(c1)c1c(n2C)C(C(=O)O)NCC1` (stereo not drawn) [Example 182, 6-methoxy-9-methyl-2,3,4,9-tetrahydro-1H-beta-carboline-1-carboxylic acid], the IC50 is reported as > 200 µM. For `O=C(O)C1NCCc2c1[nH]c1ccc(OCc3ccccn3)cc21` (stereo not drawn) [Example 101, 6-(pyridin-2-ylmethoxy)-2,3,4,9-tetrahydro-1H-beta-carboline-1-carboxylic acid hydrochloride], the IC50 was 39.9 µM. With `COC(=O)c1cccc(COc2ccc3[nH]c4c(c3c2)CCNC4C(=O)O)c1` (stereo not drawn) [Example 159, 6-{[3-(methoxycarbonyl)benzyl]oxy}-2,3,4,9-tetrahydro-1H-beta-carboline-1-carboxylic acid hydrochloride] the IC50 was 182 µM. For `COc1ccc2[nH]c3c(c2c1C)CCNC3C(=O)O` (stereo not drawn) [Example 183, 6-methoxy-5-methyl-2,3,4,9-tetrahydro-1H-beta-carboline-1-carboxylic acid hydrochloride], the IC50 was > 200 µM. `Cc1ccc2[nH]c3c(c2c1)CCNC3C(=O)O` (stereo not drawn) [Example 216, 6-methyl-2,3,4,9-tetrahydro-1H-beta-carboline-1-carboxylic acid hydrochloride] was tested, and the IC50 was > 200 µM. `NNC(=O)c1cccc2[nH]c3c(c12)CCNC3C(=O)O` (stereo not drawn) [Example 200, 5-(hydrazinocarbonyl)-2,3,4,9-tetrahydro-1H-beta-carboline-1-carboxylic acid trifluoroacetate] was tested, and the IC50 was > 200 µM. In the case of `COc1ccc2[nH]c3c(c2c1)CCN1COC(=O)C31` (stereo not drawn) [Example 236, 8-methoxy-5,6,11,11b-tetrahydro-1H-[1,3]oxazolo[3′,4′:1,2]pyrido[3,4-b]indol-1-one], the IC50 is reported as > 200 µM. With `COC(=O)c1cccc2[nH]c3c(c12)CCNC3C(=O)O` (stereo not drawn) [Example 238, 5-(methoxycarbonyl)-2,3,4,9-tetrahydro-1H-beta-carbolin-1-carboxylic acid hydrate] the IC50 was > 200 µM. `NNC(=O)c1ccc2[nH]c3c(c2c1)CCNC3C(=O)O` (stereo not drawn) [Example 107, 6-(hydrazinocarbonyl)-2,3,4,9-tetrahydro-1H-beta-carboline-1-carboxylic acid] gave an IC50 of 48.6 µM. In the case of `COc1ccc2[nH]c3c(c2c1)CCNC3(Cc1ccccc1)C(=O)O` (stereo not drawn) [Example 241, 1-benzyl-6-methoxy-2,3,4,9-tetrahydro-1H-beta-carboline-1-carboxylic acid hydrochloride], the IC50 is reported as > 200 µM. In the case of `CCC(CC)CN1CCc2c([nH]c3ccc(OC)cc23)C1C(=O)O` (stereo not drawn) [Example 197, sodium 2-(2-ethylbutyl)-6-methoxy-2,3,4,9-tetrahydro-1H-beta-carboline-1-carboxylate], the IC50 is reported as > 200 µM. With `CN1CCc2c([nH]c3ccc(OCc4ccccc4)cc23)C1C(=O)O` (stereo not drawn) [Example 36, sodium 6-(benzyloxy)-2-methyl-2,3,4,9-tetrahydro-1H-beta-carboline-1-carboxylate] the IC50 was 4.83 µM and 4.96 µM. Work on `COc1ccc2[nH]c3c(c2c1)C(Cc1cccc(C(F)(F)F)c1)CNC3C(=O)O` (stereo not drawn) [Example 118, 6-methoxy-4-[3-(trifluoromethyl)benzyl]-2,3,4,9-tetrahydro-1H-beta-carboline-1-carboxylic acid] yielded an IC50 of 70.9 µM. `CC(C)(C)OC(=O)N1CCN(C(=O)c2cccc3[nH]c4c(c23)CCNC4=O)CC1` [Example 267, tert-butyl 4-[(1-oxo-2,3,4,9-tetrahydro-1H-beta-carbolin-5-yl)carbonyl]piperazine-1-carboxylate] was tested, and the IC50 was > 200 µM. In the case of `O=C1NCCc2c1[nH]c1c(Br)cc3c(c21)OCCO3` [Example 256, 6-bromo-2,3,7,9,10,11-hexahydro-8H-[1,4]dioxino[2,3-e]pyrido[3,4-b]indol-8-one], the IC50 is reported as > 200 µM. `COc1ccc2[nH]c3c(=O)[nH]ccc3c2c1` [Example 95, 6-methoxy-2,9-dihydro-1H-beta-carbolin-1-one] gave an IC50 of 31.8 µM. `CCOC(=O)c1ccc2c3c([nH]c2c1)CCNC3=O` [Example 110, ethyl 1-oxo-2,3,4,5-tetrahydro-1H-pyrido[4,3-b]indole-7-carboxylate] showed an IC50 of 50.1 µM. `O=C1NCCc2c1[nH]c1cccc(C(=O)N3CCOCC3)c21` [Example 251, 5-(morphoiln-4-ylcarbonyl)-2,3,4,9-tetrahydro-1H-beta-carbolin-1-one] was tested, and the IC50 was > 200 µM. `COc1ccc2[nH]c3c(c2c1)C(c1ccccc1)CNC3C(=O)O` (stereo not drawn) [Example 233, 6-methoxy-4-phenyl-2,3,4,9-tetrahydro-1H-beta-carboline-1-carboxylic acid] was tested, and the IC50 was > 200 µM. For `C=CCN1CCc2c([nH]c3ccc(OC)cc23)C1C(=O)O` (stereo not drawn) [Example 128, potassium 2-allyl-6-methoxy-2,3,4,9-tetrahydro-1H-beta-carboline-1-carboxylate], the IC50 was 95.1 µM and 98.2 µM. For `COc1ccc2c3c([nH]c2c1)C(Cc1ccc(OC)c(OC)c1OC)(C(=O)O)NCC3` (stereo not drawn) [Example 203, 7-methoxy-1-[(2,3,4-trimethoxyphenyl)methyl]-2,3,4,9-tetrahydro-1H-beta-carboline-1-carboxylic acid, acetate (1:1)], the IC50 was > 200 µM. With `COc1cccc2c3c([nH]c12)C(C(=O)O)NCC3` (stereo not drawn) [Example 223, 8-methoxy-2,3,4,9-tetrahydro-1H-beta-carboline-1-carboxylic acid trifluoroacetate hydrate] the IC50 was > 200 µM. In the case of `COc1ccc2[nH]c3c(c2c1)CCN1CCNC(=O)C31` (stereo not drawn) [Example 192, 9-methoxy-3,4,6,7,12,12b-hexahydropyrazino[1′,2′:1,2]pyrido[3,4-b]indol-1(2H)-one], the IC50 is reported as > 200 µM. With `Cc1cccc2c3c([nH]c12)C(=O)NCC3` [Example 258, 1H-Pyrido[3,4-b]indol-1-one,2,3,4,9-tetrahydro-8-methyl- or 8-methyl-2,3,4,9-tetrahydro-1H-beta-carbolin-1-one] the IC50 was > 200 µM. For `COc1ccc2[nH]c3c(c2c1)CCNC3C(=O)NN` (stereo not drawn) [Example 161, 6-methoxy-2,3,4,9-tetrahydro-1H-beta-carboline-1-carbohydrazide], the IC50 was > 200 µM. `COc1ccc2[nH]c3c(c2c1)CC(C(F)(F)F)NC3C(=O)O` (stereo not drawn) [Example 205, 6-methoxy-3-(trifluoromethyl)-2,3,4,9-tetrahydro-1H-beta-carboline-1-carboxylic acid] was tested, and the IC50 was > 200 µM. `COc1ccc2[nH]c3c(c2c1)CCNC3(CCC(=O)O)C(=O)O` (stereo not drawn) [Example 178, 1-(2-carboxyethyl)-6-methoxy-2,3,4,9-tetrahydro-1H-beta-carboline-1-carboxylic acid] was tested, and the IC50 was > 200 µM. `COc1ccc2[nH]c3c(c2c1)CCNC3CN` (stereo not drawn) [Example 230, 1-(6-methoxy-2,3,4,9-tetrahydro-1H-beta-carbolin-1-yl)methanamine trifluoroacetate hydrate] was tested, and the IC50 was > 200 µM. In the case of `COc1ccc2[nH]c3c(c2c1)C(c1ccccc1)CNC3C(=O)O` (stereo not drawn) [Example 210, 6-methoxy-4-phenyl-2,3,4,9-tetrahydro-1H-beta-carboline-1-carboxylic acid hydrochloride], the IC50 is reported as > 200 µM. `COC(=O)C1c2[nH]c3ccc(OC)cc3c2CCN1CCCO[Si](C)(C)C(C)(C)C` (stereo not drawn) [Example 181, methyl 2-(3-{[tert-butyl(dimethyl)silyl]oxy}propyl)-6-methoxy-2,3,4,9-tetrahydro-1H-beta-carboline-1-carboxylate] was tested, and the IC50 was > 200 µM. With `COC(=O)C1c2[nH]c3ccc(OC)cc3c2CCN1CCNC(=O)OC(C)(C)C` (stereo not drawn) [Example 195, methyl 2-{2-[(tert-butoxycarbonyl)amino]ethyl}-6-methoxy-2,3,4,9-tetrahydro-1H-beta-carboline-1-carboxylate] the IC50 was > 200 µM. `COc1ccc2[nH]c3c(c2c1)CCN(C(C)C)C3C(=O)O` (stereo not drawn) [Example 157, sodium 2-isopropyl-6-methoxy-2,3,4,9-tetrahydro-1H-beta-carboline-1-carboxylate] was tested, and the IC50 was 170 µM. In the case of `COC(=O)[C@@H]1Cc2c([nH]c3ccccc23)C(C)(C(=O)O)N1` (mixture of isomers) [Example 228, 3-(methoxycarbonyl)-1-methyl-2,3,4,9-tetrahydro-1H-beta-carboline-1-carboxylic acid], the IC50 is reported as > 200 µM. For `COC(=O)C1Cc2c([nH]c3ccccc23)C(C(=O)O)N1` (stereo not drawn) [Example 227, 3-(methoxycarbonyl)-2,3,4,9-tetrahydro-1H-beta-carboline-1-carboxylic acid], the IC50 was > 200 µM. With `COc1ccc2[nH]c3c(c2c1)CCNC3C(F)(F)F` (stereo not drawn) [Example 224, 6-methoxy-1-(trifluoromethyl)-2,3,4,9-tetrahydro-1H-beta-carboline] the IC50 was > 200 µM. Compound `CS(=O)(=O)c1ccc(COc2ccc3[nH]c4c(c3c2)CCNC4C(=O)O)cc1` (stereo not drawn) [Example 104, 6-{[4-(methylsulfonyl)benzyl]oxy}-2,3,4,9-tetrahydro-1H-beta-carboline-1-carboxylic acid hydrochloride] has an IC50 of 44.9 µM.

Reference: patent US20050137220A1 (Pharmacia Corporation, priority 2003, published 2005)
